Experimental data from the supplement of paper PMC10307832.

Columns and labels:
Experiment in all cases: relative viability (nuclei count vs DMSO), 5 days (fraction); higher = more cells survive
Hydroxychloroquine = compound: CCN(CCO)CCCC(C)Nc1ccnc2cc(Cl)ccc12 [Hydroxychloroquine]
Procedure, shortened: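 Viability here means nuclei in treated wells divided by nuclei in vehicle wells, reported as the median across plates. Only plates with control CV below 25% and at least one doubling passed. Lung cancer cell lines in 1536-well plates were exposed to five √10-spaced library-drug doses for 5 days and counted from 4× Hoechst images in MetaXpress.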

[1] = compound: CCN(CCO)CCCC(C)Nc1ccnc2cc(Cl)ccc12 [Hydroxychloroquine] + CC(=O)c1c(C)c2cnc(Nc3ccc(N4CCNCC4)cn3)nc2n(C2CCCC2)c1=O [Palbociclib] (partner 0.5 µM)
Procedure, shortened: (§1)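 One day after seeding in 1536-well plates, lung cancer cell lines were dosed by pin tool. Dosing was either single-drug or a fixed anchor-drug dose plus five library-drug doses (not always all listed) in √10 steps. After 5 days, nuclei were stained in one fix-and-stain step and counted on 4× images, and relative viability is the nuclei count of treated wells over that of vehicle wells, given as the median of duplicate plates.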

[2] = compound: CCN(CCO)CCCC(C)Nc1ccnc2cc(Cl)ccc12 [Hydroxychloroquine] + COc1cc2c(Oc3ccc(NC(=O)C4(C(=O)Nc5ccc(F)cc5)CC4)cc3F)ccnc2cc1OCCCN1CCOCC1 [Foretinib] (partner 0.25 µM)
Procedure, shortened: as §1

[3] = compound: CCN(CCO)CCCC(C)Nc1ccnc2cc(Cl)ccc12 [Hydroxychloroquine] + COc1cccc2cc(-c3nc([C@H]4CC[C@H](C(=O)O)CC4)n4ncnc(N)c34)[nH]c12 [OSI-027] (partner 0.5 µM)
Procedure, shortened: as §1

For NCI-H1437, the relative viability (Hydroxychloroquine; 0.5 µM) was 0.994, the relative viability (Hydroxychloroquine; 1.581 µM) was 1 and the relative viability (Hydroxychloroquine; 5 µM) was 0.926. The relative viability (Hydroxychloroquine; 15.81 µM) was 0.997, the relative viability (Hydroxychloroquine; 50 µM) was 1.04 and the relative viability ([1]; first compound 0.5 µM) was 0.291. It also gave a relative viability ([1]; first compound 1.581 µM) of 0.328, a relative viability ([1]; first compound 5 µM) of 0.328 and a relative viability ([1]; first compound 15.81 µM) of 0.295. The relative viability ([1]; first compound 50 µM) was 0.336, the relative viability ([2]; first compound 0.5 µM) was 1.26 and the relative viability ([2]; first compound 1.581 µM) was 1.26. For the same cell line, the relative viability ([2]; first compound 5 µM) was 1.33, the relative viability ([2]; first compound 15.81 µM) was 1.31 and the relative viability ([2]; first compound 50 µM) was 1.28. For the same cell line, the relative viability ([3]; first compound 0.5 µM) was 0.813, the relative viability ([3]; first compound 1.581 µM) was 1.02 and the relative viability ([3]; first compound 5 µM) was 0.859. For the same cell line, the relative viability ([3]; first compound 15.81 µM) was 0.949 and the relative viability ([3]; first compound 50 µM) was 0.909.

With NCI-H1650 the relative viability (Hydroxychloroquine; 0.5 µM) was 0.956, the relative viability (Hydroxychloroquine; 1.581 µM) was 1.08 and the relative viability (Hydroxychloroquine; 5 µM) was 0.857. The relative viability (Hydroxychloroquine; 15.81 µM) was 0.806, the relative viability (Hydroxychloroquine; 50 µM) was 0.903 and the relative viability ([1]; first compound 0.5 µM) was 0.291. For the same cell line, the relative viability ([1]; first compound 1.581 µM) was 0.341, the relative viability ([1]; first compound 5 µM) was 0.317 and the relative viability ([1]; first compound 15.81 µM) was 0.323. The relative viability ([1]; first compound 50 µM) was 0.355, the relative viability ([2]; first compound 0.5 µM) was 0.996 and the relative viability ([2]; first compound 1.581 µM) was 1.01. For the same cell line, the relative viability ([2]; first compound 5 µM) was 1.02, the relative viability ([2]; first compound 15.81 µM) was 0.999 and the relative viability ([2]; first compound 50 µM) was 1.15. It also gave a relative viability ([3]; first compound 0.5 µM) of 0.653, a relative viability ([3]; first compound 1.581 µM) of 0.729 and a relative viability ([3]; first compound 5 µM) of 0.634. The relative viability ([3]; first compound 15.81 µM) was 0.562 and the relative viability ([3]; first compound 50 µM) was 0.577.

NCI-H1651 was tested, and the relative viability (Hydroxychloroquine; 0.5 µM) was 0.974, the relative viability (Hydroxychloroquine; 1.581 µM) was 0.981 and the relative viability (Hydroxychloroquine; 5 µM) was 1. For the same cell line, the relative viability (Hydroxychloroquine; 15.81 µM) was 1.01, the relative viability (Hydroxychloroquine; 50 µM) was 1.1 and the relative viability ([1]; first compound 0.5 µM) was 0.536. For the same cell line, the relative viability ([1]; first compound 1.581 µM) was 0.5, the relative viability ([1]; first compound 5 µM) was 0.517 and the relative viability ([1]; first compound 15.81 µM) was 0.567. For the same cell line, the relative viability ([1]; first compound 50 µM) was 0.54, the relative viability ([2]; first compound 0.5 µM) was 0.934 and the relative viability ([2]; first compound 1.581 µM) was 0.762. The relative viability ([2]; first compound 5 µM) was 0.865, the relative viability ([2]; first compound 15.81 µM) was 0.925 and the relative viability ([2]; first compound 50 µM) was 0.88. The relative viability ([3]; first compound 0.5 µM) was 0.659, the relative viability ([3]; first compound 1.581 µM) was 0.69 and the relative viability ([3]; first compound 5 µM) was 0.677. The relative viability ([3]; first compound 15.81 µM) was 0.786 and the relative viability ([3]; first compound 50 µM) was 0.781.

NCI-H1666 showed a relative viability (Hydroxychloroquine; 0.5 µM) of 0.986, a relative viability (Hydroxychloroquine; 1.581 µM) of 0.944 and a relative viability (Hydroxychloroquine; 5 µM) of 1.01. For the same cell line, the relative viability (Hydroxychloroquine; 15.81 µM) was 0.966, the relative viability (Hydroxychloroquine; 50 µM) was 0.952 and the relative viability ([1]; first compound 0.5 µM) was 0.651. The relative viability ([1]; first compound 1.581 µM) was 0.67, the relative viability ([1]; first compound 5 µM) was 0.653 and the relative viability ([1]; first compound 15.81 µM) was 0.646. It also gave a relative viability ([1]; first compound 50 µM) of 0.622, a relative viability ([2]; first compound 0.5 µM) of 0.969 and a relative viability ([2]; first compound 1.581 µM) of 0.949. The relative viability ([2]; first compound 5 µM) was 0.876, the relative viability ([2]; first compound 15.81 µM) was 0.894 and the relative viability ([2]; first compound 50 µM) was 0.872. For the same cell line, the relative viability ([3]; first compound 0.5 µM) was 0.816, the relative viability ([3]; first compound 1.581 µM) was 0.81 and the relative viability ([3]; first compound 5 µM) was 0.834. The relative viability ([3]; first compound 15.81 µM) was 0.82 and the relative viability ([3]; first compound 50 µM) was 0.808.
